Assay results published in paper PMC3268193 (British Journal of Pharmacology, 2012).
Residue numbers refer to the chain shown, from its start. “And” between values parts separate entries of the source, which are not always exact repeats. Equal values may be shown once.

How the values were obtained:
Format in all cases: cell-based
human P2X1 receptor WT = target: T1, human P2X1 receptor WT (Homo sapiens, UniProt P51575); test: Two-electrode voltage clamp, WT P2X1 receptor in Xenopus oocytes
T1 sequence (P51575 1-399): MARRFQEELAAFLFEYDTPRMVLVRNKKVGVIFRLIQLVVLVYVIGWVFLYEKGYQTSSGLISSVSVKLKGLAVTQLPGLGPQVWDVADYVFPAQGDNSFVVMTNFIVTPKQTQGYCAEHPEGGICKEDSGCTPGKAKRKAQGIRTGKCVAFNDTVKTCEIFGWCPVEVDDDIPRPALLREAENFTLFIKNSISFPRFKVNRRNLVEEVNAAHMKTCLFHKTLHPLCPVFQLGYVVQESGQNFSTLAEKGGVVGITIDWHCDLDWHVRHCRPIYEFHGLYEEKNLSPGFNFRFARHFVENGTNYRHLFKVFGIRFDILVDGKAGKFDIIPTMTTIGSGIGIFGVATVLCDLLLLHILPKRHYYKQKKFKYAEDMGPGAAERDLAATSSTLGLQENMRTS

human P2X2 receptor WT = target: T2, human P2X2 receptor WT (Homo sapiens, UniProt Q9UBL9); test: Two-electrode voltage clamp, WT P2X2 receptor in Xenopus oocytes
T2 sequence (Q9UBL9 1-471): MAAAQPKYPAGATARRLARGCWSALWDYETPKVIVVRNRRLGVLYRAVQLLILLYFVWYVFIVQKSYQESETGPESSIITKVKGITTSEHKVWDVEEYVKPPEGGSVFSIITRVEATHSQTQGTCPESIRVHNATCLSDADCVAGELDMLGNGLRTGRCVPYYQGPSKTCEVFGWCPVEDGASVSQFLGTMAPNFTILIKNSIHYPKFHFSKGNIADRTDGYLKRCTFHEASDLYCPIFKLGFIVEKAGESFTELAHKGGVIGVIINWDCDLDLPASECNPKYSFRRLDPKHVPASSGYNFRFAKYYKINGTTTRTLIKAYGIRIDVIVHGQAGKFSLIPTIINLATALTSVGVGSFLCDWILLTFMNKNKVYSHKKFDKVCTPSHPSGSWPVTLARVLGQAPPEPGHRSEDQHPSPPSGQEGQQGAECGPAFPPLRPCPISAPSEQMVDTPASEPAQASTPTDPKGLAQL

P2X1 Cys2(1-3) chimera = target: T3, P2X1 Cys2(1-3) chimera (Homo sapiens, UniProt P51575, A118P/DEL120-123/E128S/G124S/G131D/INS125RVHNAT/K127L/S130A); test: Two-electrode voltage clamp, chimera P2X1 Cys2
T3 sequence (P51575 with tags, fused parts or gaps A118P/DEL120-123/G124S/INS125RVHNAT/K127L/E128S/S130A/G131D): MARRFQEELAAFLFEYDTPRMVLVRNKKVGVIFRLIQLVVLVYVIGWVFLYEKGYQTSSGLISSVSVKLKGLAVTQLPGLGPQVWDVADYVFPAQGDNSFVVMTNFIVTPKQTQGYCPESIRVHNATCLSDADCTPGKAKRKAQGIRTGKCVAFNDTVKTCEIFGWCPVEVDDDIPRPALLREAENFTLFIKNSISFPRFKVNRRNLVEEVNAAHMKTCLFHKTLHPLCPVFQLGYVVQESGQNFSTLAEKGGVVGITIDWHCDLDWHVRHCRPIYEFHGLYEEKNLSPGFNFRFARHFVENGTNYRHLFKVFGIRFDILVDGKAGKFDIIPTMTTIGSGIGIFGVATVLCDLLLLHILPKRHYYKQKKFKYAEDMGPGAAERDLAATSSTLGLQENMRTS

[1] = target: T4, P2X1 receptor mutant K136E (Homo sapiens, UniProt P51575, K136E); test: Two-electrode voltage clamp, P2X1 mutant K136E
T4 sequence (P51575 1-399 K136E): T1 sequence (P51575 1-399) with K136E

[2] = target: T5, P2X1 receptor mutant R139M (Homo sapiens, UniProt P51575, R139M); test: Two-electrode voltage clamp, P2X1 mutant R139M
T5 sequence (P51575 1-399 R139M): T1 sequence (P51575 1-399) with R139M

[3] = target: T6, P2X1 receptor mutant K140L (Homo sapiens, UniProt P51575, K140L); test: Two-electrode voltage clamp, P2X1 mutant K140L
T6 sequence (P51575 1-399 K140L): T1 sequence (P51575 1-399) with K140L

[4] = 1 nM antagonist, EC90 ATP (10 µM)

Difference in suramin sensitivity between human P2X1 and P2X2 receptors (human P2X1 receptor WT) [fold] | Reduction of responses to ATP (human P2X2 receptor WT; P2X2, 100 µM suramin, ATP 30 µM (EC90)) [%] | Increase in suramin sensitivity compared with WT P2X1 (P2X1 Cys2(1-3) chimera) [fold] | Effect of mutation on suramin sensitivity [1] | Effect of mutation on suramin sensitivity [2] | Effect of mutation on suramin sensitivity [3] | Schild slope (human P2X1 receptor WT; WT P2X1) | Hill slope of NF449 inhibition curve (human P2X1 receptor WT; WT P2X1, vs EC90 ATP) | NF449 pIC50 (human P2X2 receptor WT; P2X2 WT, vs EC90 concentration of ATP) | Hill slope of NF449 inhibition curve (human P2X2 receptor WT; WT P2X2, vs EC90 ATP) | IC50 (human P2X2 receptor WT; read-out: NF449 IC50, P2X2 receptor, vs EC90 ATP (30 µM)) | Reduction in NF449 sensitivity compared with P2X1 WT (P2X1 Cys2(1-3) chimera) [fold] | Reduction of ATP-evoked current [1, 4] | Reduction of ATP-evoked current [2, 4] | Reduction of ATP-evoked current [3, 4] | SMILES
~60 | ~50 | 15 | no effect | no effect | no effect |  |  |  |  |  |  |  |  |  | Cc1ccc(C(=O)Nc2ccc(S(=O)(=O)O)c3cc(S(=O)(=O)O)cc(S(=O)(=O)O)c23)cc1NC(=O)c1cccc(NC(=O)Nc2cccc(C(=O)Nc3cc(C(=O)Nc4ccc(S(=O)(=O)O)c5cc(S(=O)(=O)O)cc(S(=O)(=O)O)c45)ccc3C)c2)c1 [suramin]
 |  |  |  |  |  | 1.17± 0.16 | 0.98 ± 0.13 | 5.86 ± 0.09 | 1.61 ± 0.08 | ~1000 nM and ~1500 nM | ~20 | 40–70% | 40–70% | 40–70% | O=C(Nc1cc(C(=O)Nc2ccc(S(=O)(=O)O)cc2S(=O)(=O)O)cc(C(=O)Nc2ccc(S(=O)(=O)O)cc2S(=O)(=O)O)c1)Nc1cc(C(=O)Nc2ccc(S(=O)(=O)O)cc2S(=O)(=O)O)cc(C(=O)Nc2ccc(S(=O)(=O)O)cc2S(=O)(=O)O)c1 [NF449, 4,4′,4′′,4′′′-(carbonylbis(imino-5,1,3-benzenetriyl-bis(carbonylimino)))tetrakis-benzene-1,3-disulphonic acid]
